# Test system: participants with moderate to severe OSA
# Test: Open-label 4-period dose-escalation study of dronabinol+atomoxetine, polysomnography (Example 3)
# Assay type: in vivo, human
# Settings: atomoxetine 80 mg alone, week 1 PSG, compared to baseline
# From the text: This study is designed to assess the safety and efficacy for OSA of three escalating dose combinations of atomoxetine with dronabinol, compared to baseline and to atomoxetine alone.
# The present study (SEED) is an open-label, 4 consecutive period dose-escalation study of combinations of atomoxetine and dronabinol in participants with moderate to severe OSA. Participants will undergo initial pre-screening to determine potential study eligibility. […] Only participants who meet all non-PSG enrollment criteria at Visit 1 are eligible for a screening PSG. On a case by case basis and with agreement of the Sponsor a PSG conducted at the site within 3 months may be used instead of the Screening PSG.
# Participants who meet all enrollment criteria will receive an escalating dose of atomoxetine the first week: 3 days of atomoxetine 40 mg followed by 4 days of atomoxetine 80 mg. Participants will then receive escalating dose combinations of atomoxetine and dronabinol for the next 3 weeks. The weekly dose schedule is as follows: • Week 1: atomoxetine 40 mg×3 days, then 80 mg×4 days • Week 2: atomoxetine 40 mg/dronabinol 2.5 mg • Week 3: atomoxetine 80 mg/dronabinol 5 mg • Week 4: atomoxetine 80 mg/dronabinol 10 mg […]
structure (smiles),measurement,value
"CNCCC(Oc1ccccc1C)c1ccccc1 (single isomer, unassigned; (-)) [Ato 80 mg, (−)-N-Methyl-3-phenyl-3-(o-tolyloxy)-propylamine]",Hypoxic burden (HB4),significantly reduced

# Reference: US20240189328A1, “COMBINATION OF NOREPINEPHRINE REUPTAKE INHIBITOR AND A C[…] USE IN TREATING SLEEP APNEA” (APNIMED, INC. (DELAWARE), priority 2021, published 2024)
